Test system: neuronal stem cell (NSC) cultures / foetal stem cells
Assay: Neuronal stem cell neurogenesis, differentiation and proliferation by immunocytochemistry
Assay type: cell-based
Conditions: foetal stem cells treated with 1 μM; FIG. 3B
Experimental: Previously isolated and frozen neuronal stem cell cultures were properly thawed, maintained and cultured. Cell suspensions were grown in a defined medium (DF12) composed of DMEM/F12 (1:1), 2 mM L-glutamine, 1 mM sodium pyruvate, antibiotics/antimycotics (Invitrogen, Grand Island, N.Y.), 0.6% glucose, 25 μg/ml insulin, 20 nM progesterone, 60 μM putrescine, 30 nM sodium selenite (all from Sigma, St. Louis, Mo.), 100 μg/ml human transferrin (Roche, Indianapolis, Ind.), 20 ng/ml human recombinant […] growth factor (EGF; Roche or Invitrogen, Chicago, Ill.) and basic fibroblast growth factor (bFGF; Upstate Biotechnology, Lake Placid, N.Y.). The cells grew as free-floating aggregates (neurospheres) and were passaged by mechanical dissociation every 3-4 d. […]
To identify proliferating cells, 100 μM BrdU, an analog of thymidine, was added 24 h before cell fixation. […] A primary monoclonal antibody against BrdU (1:20; Dakopatts) was added for 1 h at room temperature and detected using AlexaFluor 488-labelled goat anti-mouse IgG (H+L). […] Apoptotic cells were visualised with Hoechst 33342 (LifeTechnologies, Md.) as fragmented pycnotic blue-stained nuclei and counted under the fluorescence microscope (López-Toledano M.A. and Shelanski M.L., 2004 Neurogenic effect of beta-amyloid peptide in the development of neural stem cells. J Neurosci. 24(23):5439-44). […]

Compound: CN1CC[C@]23c4c5ccc(O)c4O[C@H]2[C@@H](O)C=C[C@H]3[C@H]1C5 [morphine, Morphine]
- neuronal proliferation (image of magnified foetal stem cells): extensive neuronal proliferation
